Data on five compounds can be found in patent publication US20230118142A1, “AGENTS FOR USE IN THE TREATMENT OF TISSUE DAMAGE” (UCL BUSINESS LTD, priority 2020, published 2023).

Values joined by “and” are separate entries in the source; they are usually repeats but may differ in a detail not shown here. Identical values can stand only once.

For data set [1], the target named is T1, CRP (Homo sapiens, UniProt P02741).
T1 sequence (P02741 19-224): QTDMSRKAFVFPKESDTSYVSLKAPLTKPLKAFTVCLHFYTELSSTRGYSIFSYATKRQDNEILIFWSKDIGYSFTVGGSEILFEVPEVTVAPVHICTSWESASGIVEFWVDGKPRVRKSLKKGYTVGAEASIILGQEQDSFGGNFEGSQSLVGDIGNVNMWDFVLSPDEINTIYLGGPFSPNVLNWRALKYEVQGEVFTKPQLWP
As to the kind of experiment: In vivo clearance of CRP/ligand complexes generated in vivo in mice. Also noted: The final concentrations were 0.73 μM native pentameric CRP; from tissue. Here is the method:
(i) Two groups of 8 wild-type C57BL/6 mice (male; 23-27 weeks old) were used: group 1 (control) and group 2 (treated).
(§1) (ii) Both groups of animals were given 200 μl of human CRP (5 mg/ml in azide-free TC buffer) subcutaneously on day 1.
(iii) On day 2 (+18 h), control animals were given a 200 μl intravenous bolus of TC buffer. Treated animals were given a 200 μl iv bolus of ligand (prepared at 5 mg/ml in TC buffer).
(iv) One timed blood sample and a terminal blood sample were collected from each mouse into heparinised tubes and weighed. This generated data in quadruplicate at 4 time points, normally 30, 60, 120 and 360 minutes.
(v) ^125I radiolabel was measured (Perkin Elmer Wizard; protocol #1) in whole blood to quantify total CRP. In some cases, electroimmunoassay as above was also used to determine total CRP concentration.
(vi) Plasma was prepared and free CRP determined by Roche immunoassay.
(§2) Subcutaneous injection of human CRP provided circulating CRP concentrations with which to test for effects of our ligands in vivo. (Table 4).

Data set [2] has as its target T1, CRP. As to the kind of experiment: Roche immunoturbidimetric assay: pure CRP. The data set is classed as binding. More on the design: The final concentrations were 0.73 μM native pentameric CRP; from tissue. The note with it: pure CRP in TC buffer; read-out: IC50 (μM), SD; inhibition of Roche CRP immunoreactivity. Here is the method: (i) Human CRP at ˜90 μg/ml (3.9 μM monomer or 0.78 μM pentamer) in TC buffer was prepared from a stock solution; a 75 μl aliquot was used in the assay.
(ii) Compounds were prepared from stock solutions at up to 10 mM in TC (labelled S1). They were serially diluted with TC buffer (100 μl ligand+200 μl TC) to provide up to 9 dilutions, S2-S10. A TC buffer control (S0) was included in each assay.
(iii) A 15 μl volume of each ligand solution was incubated with 75 μl of CRP for 1 h at 37° C. The final concentrations were CRP pentamer=0.73 μM, ligands S1-S10=625-0.03 μM, corresponding to ligand:CRP pentamer ratios of 853-0.04.
(iv) CRP concentrations were measured by the Roche microparticle-enhanced immunoturbidimetric assay (10) on the COBAS MIRA autoanalyser, and results expressed as a percentage of the CRP control.
(v) Data were plotted using Sigmaplot (V14) using the 4 parameter logistic curve y=min+(max−min)/(1+(x/EC50)^−Hill slope) to calculate EC50.
(vii) All compounds were assayed in comparison with a highly purified preparation of BPC8, that was prepared by Carbogen AMCIS AG, dissolved in sterile water and diluted into TC buffer as required.
The immunoturbidimetric CRP assay on the Roche COBAS MIRA Plus autoanalyser, utilises two different sized microparticles that are covalently coupled with two different monoclonal antibodies, which recognise different CRP epitopes. The assay was developed by Roche for clinical measurement of CRP serum and plasma with high sensitivity and a very wide dynamic range. Serendipitously, one of the two antibodies binds to an epitope present on the ligand binding B-face of CRP. Thus, when the binding pocket is occupied by ligand and, especially, when the B-face is occluded by the B-face to B-face interaction of two native CRP pentamers produced by cross linking via our unique bivalent ligands, the assay fails to detect the CRP. In contrast, the CRP is all detected and assayed normally by other assays that disrupt the crosslinking and/or use antibodies which recognise different, non-occluded, epitopes. Inhibition of CRP recognition in the Roche assay is thus a convenient tool to monitor the efficacy and potency of complex formation between our unique ligands and CRP.

Data set [3] has as its target T1, CRP. As to the kind of experiment: Size exclusion chromatography of CRP/ligand cross linking. The data set is classed as binding. Also noted: The final concentrations were 0.73 μM native pentameric CRP; from tissue. The note with it: CRP/ligand complex re-chromatographed in absence of free ligand. Here is the method: (i) Ligands were diluted to 0.5 mM in TC buffer from up to 10 mM stocks. Serial dilutions were prepared as required. […]
(iii) The complex was chromatographed on a Superdex200 column (10/300 GL; 24 ml bed volume), connected to the ÅKTA100 Explorer HPLC system, and equilibrated and eluted in TC buffer at 0.5 ml/min. Eluates were monitored at 280 nm and fractions (0.5 ml) collected as required.
Size exclusion chromatography on a Superdex 200 column equilibrated and eluted with TC buffer pH 8.0, and calibrated with standard globular marker proteins and with human CRP, the native CRP pentamer (Mr 115 kDa) eluted at 13.9 ml (range 13.7-14.0 ml, n=10).
In general terms: Size exclusion chromatography separates by hydrodynamic size, large species first.

In data set [4] the target is T1, CRP. As to the kind of experiment: MIRA immunoturbidimetric assay. In kind it is binding. More on the design: The final concentrations were 0.73 μM native pentameric CRP; from tissue. The text has this: The CRP immunoturbidimetric assay on the Roche COBAS MIRA Plus autoanalyser, utilises two different sized latex particles that are covalently coupled with two different monoclonal antibodies with specificity for different CRP epitopes (10). The assay was validated by Roche for measurement of native pentameric CRP, for which it has high sensitivity and specificity and a high upper detection limit; it was calibrated against a standard produced in our laboratory. Serendipitously, one of the assay's antibodies binds to an epitope present on the ligand binding B face of CRP. […]
CRP concentrations were measured in the presence and absence of ligands by the COBAS MIRA autoanalyser. […] CRP concentration was determined spectrophotometrically (Beckman Coulter DU 650) in quartz cuvettes with a 1 cm light path, by measuring A280 after correction for absorbance at 320 nm (light scattering) and using the measured absorption coefficient A(1%, 1 cm)=17.5 for human CRP (7). […]
Data are expressed as measured CRP (mg/L) against final total ligand concentration (M) and were plotted using Sigmaplot (V14) using the 4 parameter logistic curve y=min+(max−min)/(1+(x/EC50)^−Hill slope) to calculate EC50. Where appropriate, samples were also measured in whole normal human serum following the addition of a known amount of human CRP. […]

Data set [5] has as its target T1, CRP. As to the kind of experiment: In vivo clearance of preformed CRP/ligand complexes in mice. More on the design: from tissue. The procedure: (i) CRP at 1 mg/ml in azide-free TC buffer (containing, in some experiments, ˜10^6 cpm/ml of ^125I-CRP) was incubated with a 5-fold molar excess of ligand. A control (ligand-free) sample was also prepared. Cross linking of CRP was confirmed by SEC in TC buffer of a small sample of complex.
(ii) Two groups of eight wild-type C57BL/6 mice (male; 23-27 weeks old) were used.
The complex or control (200 μl, 200 μg CRP) was injected into the tail vein of each mouse. A single timed collection of blood was taken from the tail vain of each mouse; a second terminal sample was also collected. This yielded 4 samples each at 30, 60, 120 and 180 min for control and treated groups.
(iii) Blood samples were weighed and CRP measured in the Roche assay and, in some cases by electroimmunoassay (4, 13). ^125I-CRP was measured by gamma counting (Perkin Elmer Wizard; protocol #1).
Complexes were prepared in vitro using ^125I-labelled CRP and an excess of ligand, and the mixture was then injected intravenously into mice. Clearance of CRP was monitored by counting of the ^125I-CRP tracer and stable CRP-ligand complexes were detected by lack of CRP detection in the Roche assay of the plasma samples. The formation of CRP/ligand complexes was confirmed by size exclusion chromatography before use in each in vivo experiment.

Data set [6] can be described thus: Circulating CRP concentrations after subcutaneous CRP in mice. In kind it is in vivo. Conditions: individual mice. The procedure:
as §1, §2

As to `O=C(NC(C(=O)O)[C@H]1CN2CCC1CC2)c1ccc(C(=O)NC(C(=O)O)[C@H]2CN3CCC2CC3)cc1` (stereo partly drawn) [Compound P2B-B, (R,2R,2′R)-2,2′-(terephthaloylbis(azanediyl))bis(2-((R)-quinuclidin-3-yl)acetic acid)], the “Time CRP:ligand complex generated in vivo was stable” value in data set [1] was “at least 1 hour”. In addition, the values for the IC50 in data set [2] and in data set [4] were 0.64 ± 0.17 µM and 0.6 µM, respectively. Moreover, in data set [3], the Stable to rechromatography entry is on record as “Yes”.

The compound `O=C(NC(C(=O)O)[C@H]1CN2CCC1CC2)c1cccc(C(=O)NC(C(=O)O)[C@H]2CN3CCC2CC3)c1` (stereo partly drawn) [Compound P2B-E, 2-[[3-[[carboxy-[(3R)-quinuclidin-3-yl]methyl]carbamoyl]benzoyl]amino]-2-[(3R)-quinuclidin-3-yl]acetic acid] came in with an IC50 in data set [4] of 2.02 µM.

As for `O=C(O)C(NC(=O)[C@H]1CC[C@H](C(=O)NC(C(=O)O)[C@H]2CN3CCC2CC3)CC1)[C@H]1CN2CCC1CC2` (stereo partly drawn) [Compound P2B-H, 2-[[4-[[-carboxy-[(3R)-quinuclidin-3-yl]methyl]carbamoyl]cyclohexanecarbonyl]amino]-2-[(3R)-quinuclidin-3-yl]acetic acid], the “Time complex generated in vivo was partially stable” value in data set [1] is given as “at least 3 hours”. For the same compound, in data set [2], the IC50 was 0.6 µM. The Stable to rechromatography result in data set [3] is “Yes”.

As to `O=C(NC([C@H]1CN2CCC1CC2)P(=O)(O)OCc1ccccc1)c1ccc(C(=O)NC([C@H]2CN3CCC2CC3)P(=O)(O)OCc2ccccc2)cc1` (some centres unmarked) [Compound P3A-C], the IC50 in data set [2] is 0.91 µM. The “Time complexes stable in vivo” value in data set [5] (complexes formed in vitro) was “at least 6 hours”.

Consider “CRP: Human C-reactive protein, isolated and purified, injected into mice”, for which the “Circulating CRP concentration” value was 58.2 mg/L and 69.2 mg/L in data set [6] (16 h after subcutaneous 1 mg CRP); 44.0 mg/L and 57.2 mg/L in data set [6] (18 h after subcutaneous 1 mg CRP); 24.0 mg/L and 32.2 mg/L in data set [6] (24 h after subcutaneous 1 mg CRP). Moreover, in data set [5] (intravenous, 125I-CRP tracer), the “t1/2 of clearance of CRP” value was roughly 2.17 h.

The term IC50 denotes the midpoint of a concentration-inhibition curve.
